Columns and labels:
[1] = tested on: TC-1 tumor cells; type: in vivo; conditions: C57BL/6 mice with s.c. TC-1 tumors
Excerpt: Methods. C57BL/6 mice were inoculated with 1×10^5 TC-1 tumor cells subcutaneously into the right flank. When tumors reached approximately 60-70 mm^3 in size, various treatments were initiated. The treatment groups (N=5) consisted of no treatment, administration of an isotype control IgG antibody (clone 2A3, BioXcell), anti-PD-1 monotherapy (clone 29F.1A12, BioXcell), AMD3100 monotherapy (catalog AB120718, AbCam), combination of AMD3100 and anti-PD-1 and combination of AMD3100, anti-PD-1, and an HPV vaccine (See, FIGS. 1, 2, 3, and 4).
The treatment regimen consisted of administration of 0.5 mg/mouse of anti-PD-1 antibody (clone 29F.1A12, BioXcell) or isotype control antibody (clone 2A3, BioXcell) every 5 days for a total of 3 treatments. Prior to each dose of antibody, the mice were treated with 3 mg/kg of AMD3100 (catalog AB120718, AbCam). In addition, a subset of mice were treated with a 1:1 ratio of 20 mcg of HPV E7 peptide vaccine and 20 mcg of poly I:C adjuvant in a total volume of 20 μl, which was administered intratumorally. The tumors were measured twice a week with calipers. When the tumor measured over 2 centimeters in any one direction, the animal was sacrificed according to IACUC policy.

[2] = tested on: ovarian preclinical cancer model
[3] = molecular target: CXCR4 (Homo sapiens, UniProt P61073); conditions: cited from earlier work
[4] = tested on: mature leukocytes; conditions: administration of AMD3100; cited from earlier work
[5] = 0.01-0.02 mg/kg subcutaneously twice daily for 6 months; phase I clinical trial (Blood 2014; 123(15):2308-16); cited from earlier work

CXCR4, sequence (P61073 whole entry): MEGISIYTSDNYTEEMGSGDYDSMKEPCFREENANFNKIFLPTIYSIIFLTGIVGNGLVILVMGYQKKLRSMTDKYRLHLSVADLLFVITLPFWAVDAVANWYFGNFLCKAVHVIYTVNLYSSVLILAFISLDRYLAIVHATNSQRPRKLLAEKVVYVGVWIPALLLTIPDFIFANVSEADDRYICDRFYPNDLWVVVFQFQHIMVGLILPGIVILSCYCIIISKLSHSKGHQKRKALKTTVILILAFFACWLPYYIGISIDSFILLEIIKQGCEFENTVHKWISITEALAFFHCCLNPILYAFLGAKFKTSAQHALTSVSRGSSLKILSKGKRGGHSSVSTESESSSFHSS

c1cc(CN2CCCNCCNCCCNCC2)ccc1CN1CCCNCCNCCCNCC1 [AMD3100]
anti-tumor effect (tumor growth, FIG. 1, FIG. 3) ([1]; AMD3100 3 mg/kg before each antibody dose, anti-PD-1 0.5 mg/mouse every 5 days x3, HPV E7 peptide vaccine intratumorally, caliper tumor volume): enhanced anti-tumor effect
survival (FIG. 2, FIG. 4) ([1]; same regimen, Log-rank test): prolonged survival
CD8+ T cells [2]: increase
Treg infiltration [2]: decrease
anti-tumor effect [2]: enhanced anti-tumor effect
antagonism of CXCR4 [3]: highly specific antagonist of CXCR4
mobilization of leukocytes into the blood [4]: rapidly mobilize all major subsets of mature leukocytes into the blood
safety of long-term, low-dose treatment [5]: demonstrated the safety
